In ChEMBL document CHEMBL1909046, “DrugMatrix in vitro pharmacology data”:

Columns and labels:
[1] = DRUGMATRIX: Sodium/nucleoside co-transporter radioligand binding (ligand: nitrobenzylthioinosine); assay type: cell membranes, Cavia porcellus, Dunkin-Hartley, Cerebral cortex, Membrane; conditions: Not Active = under 50% inhibition at 10 µM
B2 bradykinin receptor = target: T1, B2 bradykinin receptor (Homo sapiens, UniProt P30411); assay type: cell membranes, Membrane; conditions: chem-1; also: in other assays of this panel Not Active means under 50% inhibition at 10 µM
T1 sequence (P30411 whole entry): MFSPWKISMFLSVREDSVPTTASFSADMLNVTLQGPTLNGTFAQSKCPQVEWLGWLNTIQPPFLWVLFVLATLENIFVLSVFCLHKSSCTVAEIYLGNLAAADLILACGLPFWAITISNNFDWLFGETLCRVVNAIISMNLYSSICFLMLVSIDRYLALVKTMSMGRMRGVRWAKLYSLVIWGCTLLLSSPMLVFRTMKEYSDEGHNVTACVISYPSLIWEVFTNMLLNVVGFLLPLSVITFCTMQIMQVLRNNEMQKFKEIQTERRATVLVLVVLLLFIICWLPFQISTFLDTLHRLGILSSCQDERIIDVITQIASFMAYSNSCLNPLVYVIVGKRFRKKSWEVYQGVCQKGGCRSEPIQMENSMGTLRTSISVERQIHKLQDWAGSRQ

Calcitonin receptor = target: T2, Calcitonin receptor (Homo sapiens, UniProt P30988); assay type: cell membranes, Membrane; conditions: t47d; also: in other assays of this panel Not Active means under 50% inhibition at 10 µM
T2 sequence (P30988 whole entry): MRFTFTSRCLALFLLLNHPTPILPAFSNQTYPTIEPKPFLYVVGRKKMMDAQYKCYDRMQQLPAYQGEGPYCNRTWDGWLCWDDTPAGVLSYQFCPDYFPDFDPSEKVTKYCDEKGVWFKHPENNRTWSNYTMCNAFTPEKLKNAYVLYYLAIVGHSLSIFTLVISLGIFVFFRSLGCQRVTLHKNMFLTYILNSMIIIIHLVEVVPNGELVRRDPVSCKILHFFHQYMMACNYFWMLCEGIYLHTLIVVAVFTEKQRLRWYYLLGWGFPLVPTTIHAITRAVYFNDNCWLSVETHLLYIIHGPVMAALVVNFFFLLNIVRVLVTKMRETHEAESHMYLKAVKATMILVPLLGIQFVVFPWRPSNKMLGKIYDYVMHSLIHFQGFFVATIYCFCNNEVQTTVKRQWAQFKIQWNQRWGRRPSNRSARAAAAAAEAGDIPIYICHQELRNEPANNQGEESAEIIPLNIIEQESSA

[2] = DRUGMATRIX: Serotonin (5-Hydroxytryptamine) 5-HT3 radioligand binding (ligand: [3H] GR-65630); assay type: cell membranes, Membrane; conditions: hek293; Not Active = under 50% inhibition at 10 µM
[3] = target: Sigma non-opioid intracellular receptor 1 (Homo sapiens, UniProt Q99720); test: DRUGMATRIX: Sigma1 radioligand binding (ligand: [3H] Haloperidol); assay type: cell membranes, Jurkat, Membrane; conditions: jurkat; Not Active = under 50% inhibition at 10 µM
Vasopressin V1a receptor = Vasopressin V1a receptor (Homo sapiens, UniProt P37288); assay type: cell membranes, Membrane; conditions: hek293; also: in other assays of this panel Not Active means under 50% inhibition at 10 µM
[4] = DRUGMATRIX: Phosphodiesterase PDE3 enzyme inhibition (substrate: [3H]cAMP + cAMP); assay type: tissue-based, Homo sapiens; conditions: platelet; Not Active = under 50% inhibition at 10 µM
Estrogen receptor = target: T3, Estrogen receptor (Homo sapiens, UniProt P03372); conditions: sf9; also: in other assays of this panel Not Active means under 50% inhibition at 10 µM
T3 sequence (P03372 whole entry): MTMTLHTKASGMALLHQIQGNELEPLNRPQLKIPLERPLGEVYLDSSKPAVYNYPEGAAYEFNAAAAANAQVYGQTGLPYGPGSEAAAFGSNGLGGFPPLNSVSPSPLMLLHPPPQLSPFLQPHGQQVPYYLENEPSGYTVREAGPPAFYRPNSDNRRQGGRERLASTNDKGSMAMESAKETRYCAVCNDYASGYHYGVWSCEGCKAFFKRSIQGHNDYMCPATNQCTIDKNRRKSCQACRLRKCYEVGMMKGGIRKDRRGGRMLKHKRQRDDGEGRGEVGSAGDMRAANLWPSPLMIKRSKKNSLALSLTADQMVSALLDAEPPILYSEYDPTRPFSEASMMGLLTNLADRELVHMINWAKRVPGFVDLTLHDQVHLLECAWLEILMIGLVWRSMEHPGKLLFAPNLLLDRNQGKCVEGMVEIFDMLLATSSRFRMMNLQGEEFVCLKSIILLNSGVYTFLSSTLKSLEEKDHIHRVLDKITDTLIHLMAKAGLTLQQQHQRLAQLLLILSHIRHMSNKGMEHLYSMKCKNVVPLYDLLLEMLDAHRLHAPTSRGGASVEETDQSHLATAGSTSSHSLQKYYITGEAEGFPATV

Sequence of Sigma non-opioid intracellular receptor 1 (Q99720 whole entry): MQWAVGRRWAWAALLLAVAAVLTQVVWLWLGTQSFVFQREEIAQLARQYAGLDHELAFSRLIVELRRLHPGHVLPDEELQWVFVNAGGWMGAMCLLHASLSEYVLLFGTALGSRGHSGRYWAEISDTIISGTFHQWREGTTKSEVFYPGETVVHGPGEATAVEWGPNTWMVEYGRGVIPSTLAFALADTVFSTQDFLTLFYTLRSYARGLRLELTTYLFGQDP
Sequence of Vasopressin V1a receptor (P37288 whole entry): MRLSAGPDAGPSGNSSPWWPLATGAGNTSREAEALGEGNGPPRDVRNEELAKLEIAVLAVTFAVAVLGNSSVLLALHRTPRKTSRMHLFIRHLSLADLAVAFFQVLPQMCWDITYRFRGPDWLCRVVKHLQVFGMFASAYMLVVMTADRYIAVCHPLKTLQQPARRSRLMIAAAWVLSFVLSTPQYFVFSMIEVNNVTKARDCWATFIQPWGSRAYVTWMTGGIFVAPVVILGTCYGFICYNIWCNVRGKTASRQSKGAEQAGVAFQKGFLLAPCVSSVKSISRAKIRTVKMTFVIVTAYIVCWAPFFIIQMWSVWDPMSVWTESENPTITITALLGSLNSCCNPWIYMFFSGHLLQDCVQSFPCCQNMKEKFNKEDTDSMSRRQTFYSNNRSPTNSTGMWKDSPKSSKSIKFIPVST

CC(C)C[C@H]1C(=O)N2CCC[C@H]2[C@]2(O)O[C@](NC(=O)[C@@H]3C=C4c5cccc6[nH]cc(c56)C[C@H]4N(C)C3)(C(C)C)C(=O)N12 [ERGOCRYPTINE]
Not Active: IC50 [1] | Ki [1] | IC50 (B2 bradykinin receptor) | IC50 (Calcitonin receptor) | IC50 [2] | Ki [2] | IC50 [3] | IC50 (Vasopressin V1a receptor) | IC50 [4] | Ki [4] | IC50 (Estrogen receptor)

CC(C)(C(=O)O)c1ccc(C(O)CCCN2CCC(C(O)(c3ccccc3)c3ccccc3)CC2)cc1 (centres undefined) [FEXOFENADINE]
Not Active: IC50 [1] | Ki [1] | IC50 (B2 bradykinin receptor) | IC50 (Calcitonin receptor) | IC50 [2] | Ki [2] | IC50 [3] | IC50 (Vasopressin V1a receptor) | IC50 [4] | Ki [4] | IC50 (Estrogen receptor)

CN1CCN(c2c(F)cc3c(=O)c(C(=O)O)cn(CCF)c3c2F)CC1 [FLEROXACIN]
Not Active: IC50 [1] | Ki [1] | IC50 (B2 bradykinin receptor) | IC50 (Calcitonin receptor) | IC50 [2] | Ki [2] | IC50 [3] | IC50 (Vasopressin V1a receptor) | IC50 [4] | Ki [4] | IC50 (Estrogen receptor)

O=c1[nH]c(=O)n([C@H]2C[C@H](O)[C@@H](CO)O2)cc1F [FLOXURIDINE]
Not Active: IC50 [1] | Ki [1] | IC50 (B2 bradykinin receptor) | IC50 (Calcitonin receptor) | IC50 [2] | Ki [2] | IC50 [3] | IC50 (Vasopressin V1a receptor) | IC50 [4] | Ki [4] | IC50 (Estrogen receptor)

COC(=O)Nc1nc2cc(C(=O)c3ccc(F)cc3)ccc2[nH]1 [FLUBENDAZOLE]
Not Active: IC50 [1] | Ki [1] | IC50 (B2 bradykinin receptor) | IC50 (Calcitonin receptor) | IC50 [2] | Ki [2] | IC50 [3] | IC50 (Vasopressin V1a receptor) | IC50 [4] | Ki [4] | IC50 (Estrogen receptor)

CC(=O)OCC(=O)[C@@]1(O)CC[C@H]2[C@@H]3CCC4=CC(=O)CC[C@]4(C)[C@@]3(F)[C@@H](O)C[C@@]21C [FLUDROCORTISONE ACETATE]
Not Active: IC50 [1] | Ki [1] | IC50 (B2 bradykinin receptor) | IC50 (Calcitonin receptor) | IC50 [2] | Ki [2] | IC50 [3] | IC50 (Vasopressin V1a receptor) | IC50 [4] | Ki [4] | IC50 (Estrogen receptor)

CCOC(=O)c1ncn2c1CN(C)C(=O)c1cc(F)ccc1-2 [FLUMAZENIL]
Not Active: IC50 [1] | Ki [1] | IC50 (B2 bradykinin receptor) | IC50 (Calcitonin receptor) | IC50 [2] | Ki [2] | IC50 [3] | IC50 (Vasopressin V1a receptor) | IC50 [4] | Ki [4] | IC50 (Estrogen receptor)

CC(=O)OCC(=O)[C@@]12OC(C)(C)O[C@@H]1C[C@H]1[C@@H]3C[C@H](F)C4=CC(=O)C=C[C@]4(C)[C@@]3(F)[C@@H](O)C[C@@]12C [FLUOCINONIDE]
Not Active: IC50 [1] | Ki [1] | IC50 (B2 bradykinin receptor) | IC50 (Calcitonin receptor) | IC50 [2] | Ki [2] | IC50 [3] | IC50 (Vasopressin V1a receptor) | IC50 [4] | Ki [4] | IC50 (Estrogen receptor)

Cc1ccc(C)c(OCCCC(C)(C)C(=O)O)c1 [GEMFIBROZIL]
Not Active: IC50 [1] | Ki [1] | IC50 (B2 bradykinin receptor) | IC50 (Calcitonin receptor) | IC50 [2] | Ki [2] | IC50 [3] | IC50 (Vasopressin V1a receptor) | IC50 [4] | Ki [4] | IC50 (Estrogen receptor)

CCC1=C(C)CN(C(=O)NCCc2ccc(S(=O)(=O)NC(=O)N[C@H]3CC[C@H](C)CC3)cc2)C1=O [GLIMEPIRIDE]
Not Active: IC50 [1] | Ki [1] | IC50 (B2 bradykinin receptor) | IC50 (Calcitonin receptor) | IC50 [2] | Ki [2] | IC50 [3] | IC50 (Vasopressin V1a receptor) | IC50 [4] | Ki [4] | IC50 (Estrogen receptor)

Nc1cc(-c2ccncc2)c[nH]c1=O [INAMRINONE]
Not Active: IC50 [1] | Ki [1] | IC50 (B2 bradykinin receptor) | IC50 (Calcitonin receptor) | IC50 [2] | Ki [2] | IC50 [3] | IC50 (Vasopressin V1a receptor) | IC50 [4] | Ki [4] | IC50 (Estrogen receptor)

CCCCC1=NC2(CCCC2)C(=O)N1Cc1ccc(-c2ccccc2-c2nnn[nH]2)cc1 [IRBESARTAN]
Not Active: IC50 [1] | Ki [1] | IC50 (B2 bradykinin receptor) | IC50 (Calcitonin receptor) | IC50 [2] | Ki [2] | IC50 [3] | IC50 (Vasopressin V1a receptor) | IC50 [4] | Ki [4] | IC50 (Estrogen receptor)

CN1CCC(=C2c3ccccc3CC(=O)c3sccc32)CC1 [KETOTIFEN]
Not Active: IC50 [1] | Ki [1] | IC50 (B2 bradykinin receptor) | IC50 (Calcitonin receptor) | IC50 [2] | Ki [2] | IC50 [3] | IC50 (Vasopressin V1a receptor) | IC50 [4] | Ki [4] | IC50 (Estrogen receptor)

N[C@@H](Cn1ccc(=O)c(O)c1)C(=O)O [L-MIMOSINE]
Not Active: IC50 [1] | Ki [1] | IC50 (B2 bradykinin receptor) | IC50 (Calcitonin receptor) | IC50 [2] | Ki [2] | IC50 [3] | IC50 (Vasopressin V1a receptor) | IC50 [4] | Ki [4] | IC50 (Estrogen receptor)
